Target: Serine/threonine-protein kinase pim-2 (Homo sapiens, UniProt Q9P1W9)
Test: Inhibition of Pim2 kinase

Serine/threonine-protein kinase pim-2, sequence (Q9P1W9 whole entry): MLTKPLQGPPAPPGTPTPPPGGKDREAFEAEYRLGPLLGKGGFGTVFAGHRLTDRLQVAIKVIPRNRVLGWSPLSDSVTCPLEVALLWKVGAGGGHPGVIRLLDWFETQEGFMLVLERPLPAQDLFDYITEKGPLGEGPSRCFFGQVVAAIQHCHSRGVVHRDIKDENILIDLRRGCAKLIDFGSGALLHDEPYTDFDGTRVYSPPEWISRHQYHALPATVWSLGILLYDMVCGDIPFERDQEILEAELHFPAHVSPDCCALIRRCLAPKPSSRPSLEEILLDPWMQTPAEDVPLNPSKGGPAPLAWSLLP

Structure (SMILES)	IC50 [µM]
NCCc1ccc(OC(=O)c2cc(O)c(O)c(O)c2)cc1 [GALLOYL TYRAMINE]	161
C[C@@H]1O[C@@H](Oc2c(-c3ccc(O)c(O)c3)oc3cc(O)cc(O)c3c2=O)[C@H](O)[C@H](O)[C@H]1O [QUERCITRIN]	25

From ChEMBL document CHEMBL1144687, “Pim2 inhibitors from the Papua New Guinean plant Cupaniopsis macropetala” (J Nat Prod, 2008)
